Source: patent publication US20200368260A1, “USE OF BENZOPYRAN COMPOUND IN PREPARATION OF PRODUCT FOR REGULATING LIPID METABOLISM AND COMPOSITION OF THE SAME” (priority 2019, published 2020)

What was measured:
APG7 = assay: Western blotting, protein expression in oleic acid induced HepG2 cells; assay type: cell-based, human
Procedure: (§1) The culture, model establishment and drug treatment manners of the cells were operated according to 1.2.3. After completion, cells were collected, cytoplasmic proteins were extracted, and protein electrophoresis was conducted after quantification. Particularly the following methods were used: When the cell confluence reached 70%, 0.5 mM oleic acid was added to treat the cells for 24 h. After completion, the cells were collected and the cytoplasmic protein was extracted, and the protein electrophoresis was conducted after quantification. The electrophoresis method was as follows: After cell culture was completed, the culture plate was taken out, the culture medium in the well was discarded, the pellet was washed twice with PBS, placed onto an ice bath, and added with 100 μL of a protein lysis buffer (RIPA) (PMSF was added into the cell lysis buffer at 1:1000 within few minutes before the use, with a final concentration of 1 mM) per well. After the cells were lysed for about […], the cells were scraped off with a cell scraper, pipetted into a 1.5 mL centrifuge tube (which could be crushed with an ultrasonic cell disruptor for 3-5 times), then centrifuged at 12,000 rpm under 4° C. for 15-20 mM. The supernatant was taken and transferred into a new centrifuge tube for protein quantification or storage at −80° C. Theprotein content was determined by a BCA method, and the operation method was carried out according to the instructions of the kit. After the protein concentration was measured, the protein sample was added with a 5× loading buffer and mixed uniformly at 1:4, then subjected to water bath at 100° C. for […] (entangling with a sealing film to prevent bouncing off), and stored at 4° C. The specific operation method of protein electrophoresis was in accordance with the relevant references. Since each of the molecular weight of the target proteins was within 10-80 KDa except for FASN (the separation gel was prepared according to the following table), the separation gel concentration was selected to be 10%, and the concentration of the FASN protein separation gel was selected to be 6%. A spacer gel was formulated according to the following table, and sample loading was conducted. After completion, electrophoresis should be conducted as soon as possible, where concentration was conducted at 80 v for 30 min, and then electrophoresis was conducted at 120 v until the front edge ran to the lower edge of the separation gel, and the electrophoresis was stopped. 3. Transferring The PVDF membrane was immersed in methanol for 1 min in advance and then soaked with a 1× transfer solution for 10 min. the gel was removed, the excess gel was cut off from top and bottom and left and right, and then the gel was assembled in the order of filter paper-gel-membrane-filter paper from a blackboard to a whiteboard, the bubbles were removed from therebetween, and the assembly was clamped by a clip, and placed in a transfer slot with the black side to black side, and white side to white side. After the completion of the transfer, the PVDF membrane was blocked with a TB ST room-temperature shaker containing 5% skim milk powder for 1 hour. The primary antibody was diluted with TBST containing 5% BSA or 5% skim milk powder (see the antibody instructions for specific dilution multiple). After the end of blocking, the PVDF membrane was incubated with the well-diluted primary antibody overnight at 4° C.

APGSL = assay: as above; assay type: cell-based, human; conditions: high dose group
Procedure: as §1

Row | Compound | protein expression of APG7 (APG7; high dose group) | protein expression of APG7 (APG7; low doses) | protein expression of APGSL (APGSL)
1 | COc1cc(-c2[o+]c3cc(O)cc(O)c3cc2O[C@@H]2O[C@H](CO)[C@@H](O)[C@H](O)[C@H]2O)cc(OC)c1O [malvidin-3-O-β-D glucoside] | inhibition trend | significant effect | inhibition trend
2 | COc1cc(-c2[o+]c3cc(O)cc(O)c3cc2O[C@@H]2O[C@H](CO)[C@@H](O)[C@H](O)[C@H]2O)cc(O)c1O [petunidin-3-O-β-D glucoside] | inhibition trend | significant effect | inhibition trend
